The source of these data is ChEMBL document CHEMBL3045373, “New thiazolidinyl analogs containing pyridine ring: synthesis, biological evaluation and QSAR studies” (2013).

The test system of assay [1] is Mus musculus. The experiment in a line: Analgesic activity in Mus musculus Swiss albino (mouse) assessed as inhibition of acetic acid-induced writhing at 50 mg/kg, po administered 30 min prior to acetic acid challenge measured at 5 to 15 min relative to untreated control. The class given is functional. On the technique in general: In writhing tests, fewer writhes than in controls are read as antinociception.

Assay [2] deals with Rattus norvegicus. The experiment in a line: Anti-inflammatory activity against Rattus norvegicus Wistar (rat) assessed as inhibition of carrageenan-induced paw edema at 10 mg/kg, po administered 30 min prior to carrageenan challenge measured at 120 min by plethysmometeric analysis relative to untreated control. The class given is functional. A general note: In the carrageenan paw model, swelling and tenderness develop within hours.

As for `O=C1N/C(=N/c2ccccc2)S/C1=C\c1ccccn1`, the inhibition in vivo (as a rule, how much of the control response was suppressed) at 50 mg/kg in assay [1] was found to be 29.2%. Further, the inhibition in vivo at 10 mg/kg in assay [2] stood at 26.2%.
In the same order, the values of `O=C1N/C(=N/c2ccc(Cl)cc2)S/C1=C\c1ccccn1` are 41.7% and 34.8%.
As for `Cc1cccc(/N=C2/NC(=O)/C(=C/c3ccccn3)S2)c1`, in assay [1], the inhibition in vivo at 50 mg/kg is 52.3%. Moreover, the inhibition in vivo at 10 mg/kg in assay [2] was 39.7%.
The corresponding values for `Cc1ccc(/N=C2/NC(=O)/C(=C/c3ccccn3)S2)cc1` are 43.2% and 43.8%.
In the same order, the values of `O=C1N/C(=N/c2ccc(F)cc2)S/C1=C\c1ccccn1` are 43.2% and 34.7%.
For the compound `O=C1N/C(=N\Nc2ccccc2)S/C1=C\c1ccccn1`, the inhibition in vivo at 50 mg/kg in assay [1] turned out to be 46.2%. The inhibition in vivo at 10 mg/kg in assay [2] was 39.7%.
In the case of `O=C1N/C(=N\c2ccccc2[N+](=O)[O-])S/C1=C/c1ccccn1`, the inhibition in vivo at 50 mg/kg in assay [1] turned out to be 36.7%. Also, the inhibition in vivo at 10 mg/kg in assay [2] was 34.8%.
As for `O=C1N/C(=N\Nc2ccc([N+](=O)[O-])cc2[N+](=O)[O-])S/C1=C\c1ccccn1`, the inhibition in vivo at 50 mg/kg in assay [1] came to 68.7%. Also, in assay [2], the inhibition in vivo at 10 mg/kg stood at 56.5%.
The corresponding values for `COc1ccc(/N=C2\NC(=O)/C(=C/c3ccccn3)S2)cc1` are 42.4% and 39.1%.
Take `O=C1N/C(=N/c2cccc([N+](=O)[O-])c2)S/C1=C\c1ccccn1`: in assay [1], the inhibition in vivo at 50 mg/kg turned out to be 62.3%. Besides, the inhibition in vivo at 10 mg/kg in assay [2] came to 43.5%.
With `O=C1N/C(=N/c2ccc([N+](=O)[O-])cc2Cl)S/C1=C\c1ccccn1`, the inhibition in vivo at 50 mg/kg in assay [1] amounted to 37.4%. The inhibition in vivo at 10 mg/kg in assay [2] was determined as 39.7%.
With `Cc1cccc(C)c1/N=C1/NC(=O)/C(=C/c2ccccn2)S1`, the inhibition in vivo at 50 mg/kg in assay [1] came out at 51.5%. The inhibition in vivo at 10 mg/kg in assay [2] is 39.7%.
The corresponding values for `O=C1N/C(=N/c2ccccc2Cl)S/C1=C\c1ccccn1` are 36.2% and 26.2%.
In the same order, the values of `Cc1ccccc1/N=C1/NC(=O)/C(=C/c2ccccn2)S1` are 43.6% and 30.4%.
Consider `O=C1N/C(=N/c2ccc(Br)cc2)S/C1=C\c1ccccn1`, for which, in assay [1], the inhibition in vivo at 50 mg/kg is 28.7%. The inhibition in vivo at 10 mg/kg in assay [2] was found to be 30.4%.
The corresponding values for `O=C(O)Cc1ccccc1Nc1c(Cl)cccc1Cl` [DICLOFENAC SODIUM] are 60.2% and 43.5%.
